What all share (assay): Kinase selectivity, P33-radiolabeled assay
Assay type in all cases: biochemical

The target of one experiment is T1, MKK4 (Homo sapiens, UniProt P45985).
T1 construct: purchased Reaction Biology Corp
T1 sequence (P45985 1-399): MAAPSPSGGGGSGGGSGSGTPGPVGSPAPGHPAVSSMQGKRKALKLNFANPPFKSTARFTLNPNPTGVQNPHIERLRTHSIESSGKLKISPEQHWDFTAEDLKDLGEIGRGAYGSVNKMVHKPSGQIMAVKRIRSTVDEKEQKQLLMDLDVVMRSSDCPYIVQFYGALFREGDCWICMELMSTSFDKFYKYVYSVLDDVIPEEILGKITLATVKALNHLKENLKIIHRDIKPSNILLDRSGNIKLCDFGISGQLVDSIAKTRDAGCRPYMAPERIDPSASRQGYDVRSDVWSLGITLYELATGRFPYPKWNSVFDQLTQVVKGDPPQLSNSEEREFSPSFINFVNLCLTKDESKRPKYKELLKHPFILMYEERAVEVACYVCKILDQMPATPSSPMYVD
The conditions noted are these: 10 μM ATP. An outline of the steps:
(§1)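 Each enzyme was exposed to 10 μM compound, with duplicate measurements, in reactions containing 10 μM ATP. Numbers are remaining activity as a percent of the vehicle (DMSO) signal.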

In another experiment the target is T2, GRK3 (Homo sapiens, UniProt P35626).
T2 construct: purchased Reaction Biology Corp
T2 sequence (P35626 1-688): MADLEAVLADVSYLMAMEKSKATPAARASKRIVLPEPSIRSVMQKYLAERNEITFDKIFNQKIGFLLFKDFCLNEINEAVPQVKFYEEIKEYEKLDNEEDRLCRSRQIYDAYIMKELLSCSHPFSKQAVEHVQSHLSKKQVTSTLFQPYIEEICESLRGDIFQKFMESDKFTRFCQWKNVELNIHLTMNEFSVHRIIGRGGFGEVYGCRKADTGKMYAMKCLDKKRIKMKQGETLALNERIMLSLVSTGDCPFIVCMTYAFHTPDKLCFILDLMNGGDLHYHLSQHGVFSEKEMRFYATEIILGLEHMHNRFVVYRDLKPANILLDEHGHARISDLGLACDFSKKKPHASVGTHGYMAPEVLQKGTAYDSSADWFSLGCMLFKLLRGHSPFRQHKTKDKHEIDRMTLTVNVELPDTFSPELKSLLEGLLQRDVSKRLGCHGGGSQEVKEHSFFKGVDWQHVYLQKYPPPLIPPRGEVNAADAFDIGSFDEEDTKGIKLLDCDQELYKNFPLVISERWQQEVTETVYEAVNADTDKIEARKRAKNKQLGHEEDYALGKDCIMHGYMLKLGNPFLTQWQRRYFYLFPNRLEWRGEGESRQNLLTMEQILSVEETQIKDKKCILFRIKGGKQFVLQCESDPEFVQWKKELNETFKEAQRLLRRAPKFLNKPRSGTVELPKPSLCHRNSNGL
The note with it: 10 μM ATP. An outline of the steps: as §1

A further experiment addresses T3, PKCepsilon (Homo sapiens, UniProt Q02156).
T3 construct: purchased Reaction Biology Corp
T3 sequence (Q02156 1-737): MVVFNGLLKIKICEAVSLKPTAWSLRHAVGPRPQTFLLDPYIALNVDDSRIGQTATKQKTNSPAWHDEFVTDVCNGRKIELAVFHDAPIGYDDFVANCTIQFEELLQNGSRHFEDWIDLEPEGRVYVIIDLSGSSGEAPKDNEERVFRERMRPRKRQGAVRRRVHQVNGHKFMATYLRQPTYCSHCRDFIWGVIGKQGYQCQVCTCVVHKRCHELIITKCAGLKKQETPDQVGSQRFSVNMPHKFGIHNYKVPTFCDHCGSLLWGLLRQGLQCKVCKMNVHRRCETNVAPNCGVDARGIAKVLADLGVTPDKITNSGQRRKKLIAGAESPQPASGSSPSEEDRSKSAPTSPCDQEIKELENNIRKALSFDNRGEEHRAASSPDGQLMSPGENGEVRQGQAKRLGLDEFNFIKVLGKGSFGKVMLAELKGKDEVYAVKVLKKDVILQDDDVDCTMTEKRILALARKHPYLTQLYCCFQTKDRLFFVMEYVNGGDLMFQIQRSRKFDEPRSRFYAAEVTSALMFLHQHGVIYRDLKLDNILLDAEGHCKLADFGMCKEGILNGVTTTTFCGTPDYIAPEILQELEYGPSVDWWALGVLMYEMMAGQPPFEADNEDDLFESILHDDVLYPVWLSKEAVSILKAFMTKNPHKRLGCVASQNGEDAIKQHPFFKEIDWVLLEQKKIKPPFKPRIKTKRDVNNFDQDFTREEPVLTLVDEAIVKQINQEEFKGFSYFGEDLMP
The conditions noted are these: 10 μM ATP. An outline of the steps: as §1

In another experiment the target is T4, EPHA2 (Homo sapiens, UniProt P29317).
T4 construct: purchased Reaction Biology Corp
T4 sequence (P29317 24-976): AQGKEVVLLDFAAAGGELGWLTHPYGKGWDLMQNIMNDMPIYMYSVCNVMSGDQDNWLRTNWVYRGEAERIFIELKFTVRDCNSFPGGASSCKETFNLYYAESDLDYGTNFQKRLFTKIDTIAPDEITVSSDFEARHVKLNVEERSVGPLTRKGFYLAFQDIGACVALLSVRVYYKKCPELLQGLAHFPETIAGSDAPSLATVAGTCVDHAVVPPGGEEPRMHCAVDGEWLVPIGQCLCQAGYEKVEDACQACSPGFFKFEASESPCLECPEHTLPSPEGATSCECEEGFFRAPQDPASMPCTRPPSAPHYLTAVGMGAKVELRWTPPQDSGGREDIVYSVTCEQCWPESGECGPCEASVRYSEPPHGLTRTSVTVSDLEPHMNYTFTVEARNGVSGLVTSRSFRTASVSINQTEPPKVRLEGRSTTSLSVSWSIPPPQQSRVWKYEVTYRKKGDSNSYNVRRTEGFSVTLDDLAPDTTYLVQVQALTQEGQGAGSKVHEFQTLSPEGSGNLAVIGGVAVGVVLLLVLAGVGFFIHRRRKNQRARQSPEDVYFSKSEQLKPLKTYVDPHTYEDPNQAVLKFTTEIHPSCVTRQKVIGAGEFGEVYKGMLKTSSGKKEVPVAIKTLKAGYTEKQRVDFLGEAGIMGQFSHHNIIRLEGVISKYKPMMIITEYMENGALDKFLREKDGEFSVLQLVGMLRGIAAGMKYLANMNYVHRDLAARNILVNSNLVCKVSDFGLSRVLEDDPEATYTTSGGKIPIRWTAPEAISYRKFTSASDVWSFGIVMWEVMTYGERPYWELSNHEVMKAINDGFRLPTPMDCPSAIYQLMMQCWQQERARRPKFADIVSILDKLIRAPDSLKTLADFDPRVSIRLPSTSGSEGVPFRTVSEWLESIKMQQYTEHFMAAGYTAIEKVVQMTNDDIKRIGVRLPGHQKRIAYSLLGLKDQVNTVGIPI
The conditions noted are these: 10 μM ATP. An outline of the steps: as §1

For a further experiment, the target named is T5, IRAK4 (Homo sapiens, UniProt Q9NWZ3).
T5 construct: purchased Reaction Biology Corp
T5 sequence (Q9NWZ3 1-460): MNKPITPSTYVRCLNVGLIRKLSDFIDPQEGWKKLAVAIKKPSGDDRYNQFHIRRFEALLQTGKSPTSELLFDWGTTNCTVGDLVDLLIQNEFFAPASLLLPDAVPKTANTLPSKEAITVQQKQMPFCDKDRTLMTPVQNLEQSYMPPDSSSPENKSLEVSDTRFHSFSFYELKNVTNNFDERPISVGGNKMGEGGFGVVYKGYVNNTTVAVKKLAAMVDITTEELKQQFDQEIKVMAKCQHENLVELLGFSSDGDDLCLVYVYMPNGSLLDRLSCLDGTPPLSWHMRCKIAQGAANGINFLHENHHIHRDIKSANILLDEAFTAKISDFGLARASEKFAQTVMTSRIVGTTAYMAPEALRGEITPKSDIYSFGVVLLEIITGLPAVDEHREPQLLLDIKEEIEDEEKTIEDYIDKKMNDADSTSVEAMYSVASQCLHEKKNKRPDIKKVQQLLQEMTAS
The conditions noted are these: 10 μM ATP. An outline of the steps: as §1

Another experiment has as its target T6, SRMS (Homo sapiens, UniProt Q9H3Y6).
T6 construct: purchased Reaction Biology Corp
The conditions noted are these: 10 μM ATP. An outline of the steps:
as §1

In a further experiment the target is T7, MELK (Homo sapiens, UniProt Q14680).
T7 construct: purchased Reaction Biology Corp
T7 sequence (Q14680 whole entry): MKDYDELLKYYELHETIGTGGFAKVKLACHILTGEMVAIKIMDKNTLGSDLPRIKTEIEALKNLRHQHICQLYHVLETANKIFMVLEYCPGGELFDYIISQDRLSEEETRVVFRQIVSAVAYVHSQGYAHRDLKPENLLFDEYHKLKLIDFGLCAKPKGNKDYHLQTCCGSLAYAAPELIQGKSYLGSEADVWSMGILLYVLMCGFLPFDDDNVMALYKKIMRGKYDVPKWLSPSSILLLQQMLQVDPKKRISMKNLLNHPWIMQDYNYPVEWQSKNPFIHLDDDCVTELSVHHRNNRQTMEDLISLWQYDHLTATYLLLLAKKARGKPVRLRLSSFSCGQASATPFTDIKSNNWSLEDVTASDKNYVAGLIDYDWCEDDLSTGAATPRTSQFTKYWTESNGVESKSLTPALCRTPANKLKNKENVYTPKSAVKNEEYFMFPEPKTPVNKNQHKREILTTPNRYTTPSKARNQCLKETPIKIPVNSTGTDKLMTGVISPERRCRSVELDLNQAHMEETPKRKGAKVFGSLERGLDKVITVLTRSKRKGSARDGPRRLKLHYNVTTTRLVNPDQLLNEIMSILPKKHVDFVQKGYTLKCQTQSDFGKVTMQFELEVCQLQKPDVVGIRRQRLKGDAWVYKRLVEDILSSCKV
The conditions noted are these: 10 μM ATP. The gist of the method:
as §1

A further experiment has as its target T8, Aurora B (Homo sapiens, UniProt Q96GD4).
T8 construct: purchased Reaction Biology Corp
The gist of the method: as §1

Setting [1] is: read-out: % Enzyme Activity (relative to DMSO controls) AVG.
Setting [2] is: read-out: % Enzyme Activity (relative to DMSO controls) Data 1.
[3] abbreviates: read-out: % Enzyme Activity (relative to DMSO controls) Data 2.

Like-named read-outs stand apart in the source and are kept apart here.

T6 sequence (Q9H3Y6 whole entry): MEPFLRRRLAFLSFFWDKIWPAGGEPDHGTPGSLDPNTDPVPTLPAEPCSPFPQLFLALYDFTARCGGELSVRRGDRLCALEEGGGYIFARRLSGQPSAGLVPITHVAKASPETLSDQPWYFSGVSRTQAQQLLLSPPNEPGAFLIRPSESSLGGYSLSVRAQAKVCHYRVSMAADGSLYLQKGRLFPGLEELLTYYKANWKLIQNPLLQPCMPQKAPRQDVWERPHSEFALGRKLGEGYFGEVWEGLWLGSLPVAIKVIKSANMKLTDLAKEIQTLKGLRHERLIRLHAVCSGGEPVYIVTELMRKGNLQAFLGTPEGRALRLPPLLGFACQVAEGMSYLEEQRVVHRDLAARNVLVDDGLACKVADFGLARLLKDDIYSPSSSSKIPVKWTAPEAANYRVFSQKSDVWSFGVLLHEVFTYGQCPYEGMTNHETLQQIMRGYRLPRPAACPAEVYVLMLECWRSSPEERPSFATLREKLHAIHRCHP
T8 sequence (Q96GD4 whole entry): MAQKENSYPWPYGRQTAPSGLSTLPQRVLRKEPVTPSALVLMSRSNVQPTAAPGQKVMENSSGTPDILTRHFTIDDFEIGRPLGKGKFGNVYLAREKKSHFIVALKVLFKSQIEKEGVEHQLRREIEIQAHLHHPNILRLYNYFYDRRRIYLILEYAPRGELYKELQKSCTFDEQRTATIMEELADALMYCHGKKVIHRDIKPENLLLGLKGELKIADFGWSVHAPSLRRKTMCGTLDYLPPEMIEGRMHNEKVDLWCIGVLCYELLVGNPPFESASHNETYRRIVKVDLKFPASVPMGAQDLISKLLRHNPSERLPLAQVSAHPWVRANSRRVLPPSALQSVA

Turning to `CC(C)(C)C(=O)N1N=CC[C@H]1c1ccccc1` [GSK′963], the remaining activity at 10 µM on MKK4 (setting [1]) is 105%; on MKK4 (setting [2]), 105%; on MKK4 (setting [3]) it was 105%; on GRK3 (setting [1]), 97.9%; at GRK3 (setting [2]), 98.1%; at GRK3 (setting [3]), 97.6%. Besides, the remaining activity at 10 µM came out at 105% at PKCepsilon (setting [1]); 103% on PKCepsilon (setting [2]); 106% on PKCepsilon (setting [3]); 96.3% at EPHA2 (setting [1]); 95.6% on EPHA2 (setting [2]); 97% at EPHA2 (setting [3]). The remaining activity at 10 µM on IRAK4 (setting [1]) amounted to 115%; at IRAK4 (setting [2]), 116%; on IRAK4 (setting [3]), 114%; on SRMS (setting [1]), 101%; on SRMS (setting [2]) it was 98.6%; on SRMS (setting [3]), 103%. In addition, the remaining activity at 10 µM at MELK (setting [1]) is 104%; on MELK (setting [2]), 105%; at MELK (setting [3]) it was 103%; on Aurora B (10 uM, 10 μM ATP, read-out: % Enzyme Activity (relative to DMSO controls) Data 1), 104%; on Aurora B (10 uM, 10 μM ATP, read-out: % Enzyme Activity (relative to DMSO controls) Data 2), 98.7%; at Aurora B (setting [1]), 101%.

These data come from paper PMC4979471 (Cell Death Discovery, 2015).
